Patent US20250263416A1, “SPPL2a INHIBITORS” (Incyte Corporation, priority 2024, published 2025)
Entries after “also recorded” stand apart in the source; their conditions may differ.

Assays:
[1] = tested on: experimental autoimmune encephalomyelitis (EAE) mouse model; test: Experimental autoimmune encephalomyelitis (EAE) mouse model; type: in vivo, mice; conditions: for disease score (EAE severity score): compared to vehicle
Protocol: The EAE model was used to evaluate the potential of SPPL2a inhibition in an in vivo mouse model of autoimmune disease. In this study, EAE was induced in female mice, aged 7-9 weeks, using an EAE induction kit (EK-2160, Hooke Labs) containing human recombinant MOG 1 125 antigen emulsified in CFA. EAE severity score was measured on a scale of 0-6 as per the IACUC approved protocol for 20 days. Mice were treated orally with the SPPL2a inhibitor Example A at 15 mg/kg and 30 mg/kg twice daily (first dose given on the same day prior to immunization). Animals were euthanized and tissues, plasma, and serum were collected for further analysis.
Anti-mouse MOG antibodies were measured in the serum of mice using quantitative ELISA kit (AS-55156, AnaSpec). […] All data is presented as mean+SEM. For comparison of more than two groups, ANOVA was used. All statistical analysis was performed using GraphPad Prism™ 10 or higher.

human SPPL2a = molecular target: T1, human SPPL2a (Homo sapiens, UniProt Q8TCT8); test: Nuclear translocation imaging assay for human SPPL2a (SPPL2a reporter U2OS cell line); type: cell-based; conditions: U2OS reporter cells, 24 h incubation
T1 construct: expressed in transfected cells; host or cells: U2OS (SPPL2a reporter cell line)
T1 sequence (Q8TCT8 26-520): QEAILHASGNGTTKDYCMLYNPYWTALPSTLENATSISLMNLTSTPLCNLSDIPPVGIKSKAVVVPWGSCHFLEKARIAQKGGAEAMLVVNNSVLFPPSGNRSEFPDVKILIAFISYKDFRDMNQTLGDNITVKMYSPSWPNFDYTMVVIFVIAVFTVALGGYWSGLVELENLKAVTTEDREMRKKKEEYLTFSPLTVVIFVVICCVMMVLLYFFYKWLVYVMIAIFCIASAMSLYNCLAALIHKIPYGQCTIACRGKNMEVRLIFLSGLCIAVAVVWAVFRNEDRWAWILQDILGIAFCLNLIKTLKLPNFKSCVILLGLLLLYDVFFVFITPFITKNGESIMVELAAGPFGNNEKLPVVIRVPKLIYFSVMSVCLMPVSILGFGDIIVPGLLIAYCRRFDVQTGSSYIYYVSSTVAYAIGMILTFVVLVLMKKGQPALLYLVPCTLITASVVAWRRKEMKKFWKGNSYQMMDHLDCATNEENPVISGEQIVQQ
Protocol: The nuclear translocation imaging assays for human SPPL2a were performed using an SPPL2a reporter U2OS cell line as previously described (Velcicky et al 2018, Zhang et al 2017). These cells stably express human SPPL2a and a doxycycline inducible eGFP TNFα (aa 1-76) NTF fusion protein (SPPL2a substrate). Both Example 1 and Example A were added at indicated concentrations and cells were incubated for 24 h, washed, and fixed. Nuclei were stained with DAPI. Images were acquired on a confocal fluorescence microscope system LSM-800 (Carl Zeiss). Image data was analyzed by using mid-section from Z-stack images of at least 10 individual cells per sample. All data is presented as mean+SEM. Statistical significance was calculated with the ANOVA test using GraphPad Prism™ 10.

[2] = tested on: MRL/MpJ-Faslpr/J mice, lupus-like disease; test: Mouse model of systemic lupus (SLE); type: in vivo
Protocol: A mouse model of SLE was used to evaluate the treatment potential of SPPL2a inhibition by Example A in vivo in female mice aged 8 weeks. The MRL/MpJ-Faslpr/J (JAX stock #000485) mice used in this study develop a spontaneously accelerated and aggressive lupus-like disease characterized by immune-mediated damage to the organs, and by the presence of circulating auto-Abs against dsDNA, which are serological hallmarks of SLE. Mice were prophylactically treated orally with Example A at 15 mg/kg and 30 mg/kg dose, twice daily after allotment into different groups starting at week 10. As a control, cyclophosphamide at 25 mg/kg dose was given intraperitoneally, twice weekly. Mice were monitored weekly for the clinical sign development, proteinuria, skin lesions and lymphadenopathy. The study was terminated by euthanizing mice at 20 weeks of age following 10 weeks of dosing. All data is presented as mean+SEM. For comparison of more than two groups, ANOVA was used. All statistical analysis was performed using GraphPad Prism™10.
Inflammatory cytokine levels (TNFα and IFNγ) and murine immunoglobulin levels (Ig) were measured using MSD® multi-spot assay kits.

[3] = tested on: Imiquimod (IMQ)-induced psoriasis mouse model; test: Imiquimod (IMQ)-induced psoriasis mouse model; type: in vivo, BALB/c female mice; conditions: 15 mg/kg PO BID
Protocol: A comparative study was performed to evaluate the efficacy of the deuterated-inhibitor Example 1 to Example A in the mouse model of psoriasis. Briefly, BALB/c female mice (7-8 week age) were shaved on the dorsal skin and 62.5 mg of IMQ cream was applied daily until day 9. Simultaneously, 15 mg of IMQ cream was applied on one ear daily until day 9. Example 1 and Example A were given orally (PO) at 15 mg/kg, BID. Mice were monitored and clinical signs of psoriasis were recorded (PSI score), both on the dorsal skin (erythema, scaling & thickness) and on the IMQ-applied ear (thickness). All data is presented as mean+SEM. For comparison of more than two groups, ANOVA was used. Pearson product moment correlation was used to test for correlations. All statistical analysis was performed using GraphPad Prism™ 10.

[4] = both doses tested (15 and 30 mg/kg orally twice daily)
[5] = both treated groups (15 and 30 mg/kg BID)

CNC(=O)c1nc(C)c(C(=O)NC[C@@H](C)C(=O)N[C@@H]2C(=O)N3CCCN3Cc3ccccc32)s1 [Example A, N^2,4-dimethyl-N^5—((R)-2-methyl-3-oxo-3-(((S)-11-oxo-2,3,10,11-tetrahydro-1H,5H-benzo[d]pyrazolo[1,2-a][1,2]diazepin-10-yl)amino)propyl)thiazole-2,5-dicarboxamide]
IgG2a level ([1]; 15 mg/kg): Trends to lower Ig titers | IgG2b level ([1]; 15 mg/kg): Trends to lower Ig titers | IgM level ([1]; 15 mg/kg): Trends to lower Ig titers | disease score (EAE severity score) ([1]; 15 mg/kg orally twice daily): significant reduction | IgA ([1]; 30 mg/kg): lower total IgG1 and IgA trend | IgG2a titer ([1]; 30 mg/kg): Significant reduction | IgG2b titer ([1]; 30 mg/kg): Significant reduction | IgG3 titer ([1]; 30 mg/kg): Significant reduction | IgM titer ([1]; 30 mg/kg): Significant reduction | total IgG1 ([1]; 30 mg/kg): lower total IgG1 and IgA trend | disease score (EAE severity score) ([1]; 30 mg/kg orally twice daily): significant reduction | total Ig levels ([1]; EAE induced mice): significantly inhibited | clinical signs of EAE ([1]; oral, twice daily, starting at day 13 of the treatment): significantly reduced | anti-MOG antibodies in serum ([1]; quantitative ELISA): significant reduction | inhibition of nuclear translocation of TNFα-GFP (human SPPL2a): inhibited; also recorded: comparable and significant TNFα-GFP inhibition of nuclear translocation | TNFα levels in mouse serum ([2]; 15 mg/kg BID): No significant changes | Levels of IgA ([2]; 15 mg/kg dose): significantly down regulated | kidney pathology ([2]; 15 mg/kg, compared to vehicle control): did not exhibit a test article-related change compared to the vehicle control except in the blood vessels | TNFα levels in mouse serum ([2]; 30 mg/kg BID): significantly inhibits | antibody production in mouse serum ([2]; 30 mg/kg BID): significantly inhibits | Levels of IgA ([2]; 30 mg/kg dose): trended lower | kidney pathology: membranoproliferative nephritis, tubular dilation and casts, interstitial inflammation, fibrosis, blood vessel necrosis, and inflammation ([2]; 30 mg/kg oral twice daily): statistically significant decrease | Serum IFNγ levels ([2]; both doses (15 and 30 mg/kg BID)): modest increase | proteinuria [2, 4]: effectively reduced; also recorded: Significant reduction | skin lesion formation / skin lesional scores [2, 4]: effectively reduced; also recorded: Significant reduction | IgG1 [2, 5]: significantly lower | IgG2a [2, 5]: significantly lower | IgG2b [2, 5]: significantly lower | IgG3 [2, 5]: significantly lower | IgM [2, 5]: significantly lower | anti ds-DNA antibody production ([2]; compared to vehicle control): significantly reduced | lymphadenopathy ([2]; highest dose tested): significantly reduced; also recorded: Significant reduction | dorsal PSI scores [3]: alleviate | ear thickness measurements [3]: alleviate | clinical signs of psoriasis disease ([3]; compared to vehicle group): significantly reduced | Mouse IL-12 level in plasma ([3]; terminal day): significant reduction | Mouse TNFα level in plasma ([3]; terminal day): significant reduction
